For the first assay, the target named is T1, OR10J5 (Homo sapiens, UniProt Q8NHC4).
T1 construct: Flag; Rho (rhodopsin-derived tag); expressed in transfected cells
T1 sequence (Q8NHC4 1-309): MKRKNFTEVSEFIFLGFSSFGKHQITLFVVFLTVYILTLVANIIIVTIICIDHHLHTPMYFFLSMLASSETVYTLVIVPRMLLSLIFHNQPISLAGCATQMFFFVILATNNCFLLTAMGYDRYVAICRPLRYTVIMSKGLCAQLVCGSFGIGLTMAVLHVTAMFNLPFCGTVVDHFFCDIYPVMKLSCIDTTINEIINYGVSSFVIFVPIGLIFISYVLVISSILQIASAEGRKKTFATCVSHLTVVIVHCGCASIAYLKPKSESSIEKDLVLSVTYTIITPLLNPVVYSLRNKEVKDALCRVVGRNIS
Briefly: LYRAL® dose-response with serial enhancer concentrations, allosteric EC50 shift model. To be noted: enhancer 0 to 600 μM; allosteric EC50 shift equation (Prism7); α>1 indicates positive allosteric modulation. It counts as cell-based. As to the method:
Functional dose-response experiments were performed to reveal the allosteric nature of the interaction between 3-(1,3-benzodioxol-5-yl)-2-methylpropanal, 3-(4-methylcyclohex-3-en-1-yl)butanal, 2,6-dimethylhept-5-enal and heptanal and OR10J5. The level of enhancement of OR10J5's activation was evaluated at distinct concentrations of each enhancer. Using the same cell-based assay described earlier, dose response curves of OR10J5 to LYRAL® in the presence of serial concentrations of the enhancers spanning from 0 to 600 μM were performed, see FIG. 5. The curves were obtained by applying the simplified Allosteric EC50 shift effect equation (available in Prism7) derived from the ternary complex interaction model. The enhancement levels recorded were not linearly dependent on the concentration of the enhancer, and the following key parameters values for α (the cooperativity factor) and KB (the equilibrium dissociation constant of the enhancer) were obtained from the model for each enhancer: 3-(1,3-benzodioxol-5-yl)-2-methylpropanal, α=6.3 and KB=10 μM; 3-(4-methylcyclohex-3-en-1-yl)butanal, α=7.5 and KB=15 μM; 2,6-dimethylhept-5-enal, α=4.1 and KB=16 μM; and heptanal; α=3.2 and KB=51 μM. α>1 is indicative of positive allosteric modulation.
Take `CCCCCCC=O` [heptanal]: the “α (cooperativity factor)” value was 3.2.
Still for that read-out and setting: with `CC(C)=CCCC(C)C=O` (racemic) [2,6-dimethylhept-5-enal] the figure was 4.1.

The same assay, now with this note: read-out: KB (equilibrium dissociation constant of the enhancer).
With `CCCCCCC=O` [heptanal], the Kb amounted to 51 µM.
Turning to `CC(C)=CCCC(C)C=O` (racemic) [2,6-dimethylhept-5-enal], the Kb stood at 16 µM.

The target of another assay is T2, OR10J5 olfactory receptor (Homo sapiens, UniProt Q8NHC4).
T2 construct: Flag; Rho (rhodopsin-derived tag); expressed in transfected cells
T2 sequence (Q8NHC4 1-309): T1 sequence (Q8NHC4 1-309)
Put plainly: Single-point binary mixture enhancement screen (LYRAL® at about EC20 + test compound), cAMP HTRF. It counts as cell-based. To be noted: binary mixture of 4.6 μM LYRAL® and 300 μM test compound, HEK293T. The procedure: A dose response curve showing the activation of OR10J5 in response to the floral muguet compound 3-(4-hydroxy-4-methylpentyl)cyclohex-3-ene-1-carbaldehyde, 4-(4-hydroxy-4-methylpentyl)cyclohex-3-ene-1-carbaldehyde or a mixture thereof (sold under the tradename LYRAL®, hereinafter referred to as “LYRAL®”) is shown in FIG. 1. Using a cell-based assay, OR10J5 activity was tested in a HEK293T cell line wherein the endogenous chaperone RTP1 gene has been activated and the odorant receptor chaperone was expressed according to the methods disclosed in International Patent Application Publication No. WO2016/201153 A1. […]
A library of volatile compounds was used to create binary mixtures of each compound with LYRAL® at approximately EC20, a concentration eliciting only approximately 20% of full activity level of OR10J5 by itself. […] Single binary mixture-induced receptor activity was detected by measuring the cAMP increase in the cytosol using an HTRF (Homogenous Time-Resolved Fluorescence unit) based kit (CisBio, cAMP dynamic 2 kit, 62AM4PEJ). […]
The resulting activation was then measured and compared to LYRAL® alone (defining the baseline of the enhancement assay). The quality of the HTS process was determined and the window variability and signal reliability were assessed by calculating the Z′ value of each plate. […]
(In general: In TR-FRET formats the signal depends on donor and acceptor labels being close together.)
On to `COC(=O)c1ccccc1/N=C/c1ccccc1` [compound 15], for which the “OR10J5 olfactory receptor agonists among screen hits” value is “agonists”.
As for `C[C@@H]1C/C=C\CCCCCCCCCC(=O)C1` [compound 2], the “OR10J5 olfactory receptor agonists among screen hits” value is listed as “agonists”.

A further assay deals with T1, OR10J5. Briefly: (+−)-2,5-dimethyl-2-indanmethanol dose-response with a steady concentration of test compound. It counts as cell-based.
Settings: not given
As to the method:
OR10J5 activity enhancement was tested with an additional agonist and with one of the test compounds and conditions described in the Examples above. Dose response curves to (+−)-2,5-dimethyl-2-indanmethanol was obtained in the presence of a steady concentration of the test compound and compared to a dose-response curve of the agonist alone. The resulting enhancement was quantified by means of EC50-fold shift (potency increase) and the efficacy span ratio (efficacy increase) as described above.
`Cc1ccc2c(c1)CC(C)(CO)C2` (racemic) [(+−)-2,5-dimethyl-2-indanmethanol, reference compound]: the “agonist character at OR10J5” value is “partial agonist”.

The next assay has as its target T2, OR10J5 olfactory receptor. Put plainly: Inhibition of LYRAL® (EC80)-induced receptor activity, screen and dose-response. It counts as cell-based. As to conditions: dose-response in the presence of EC80 LYRAL®. The procedure: Using the same cell-based assay described herein, OR10J5 activity inhibition was tested with binary mixtures of LYRAL® and a test compound. Volatile compounds were used to create binary mixtures of each compound with LYRAL® at approximately EC80, a concentration eliciting approximately 80% of full activity level of OR10J5 by itself. An activation cell-based assay was used for the initial inhibitor candidate identification as disclosed in WO2019101813.
The binary mixtures were created by mixing a LYRAL® stock solution with a stock solution of each test compound to a final concentration XXX and 300 μM, respectively. Stock solutions were made of compounds dissolved in pure DMSO. Each mixture was presented to a cell line expressing the OR10J5 olfactory receptor. Similar to the enhancement screening conditions, the final concentration of DMSO in each binary mixture was 0.1%, and had no visible effect on the cells. The resulting activation was measured and compared to LYRAL® alone (defining the activity baseline of the assay, ˜EC80). […] The quality of the HTS process was determined and the window (activity range between EC80 and the DMSO baseline) variability and signal reliability were assessed by calculating the Z′ value of each plate.
Candidate inhibitors identified were tested in a dose-response inhibition experiments to confirm the inhibition properties of the potential candidates. The dose-response curve in the presence of EC80 LYRAL® concentration (generating 80% activity on OR10J5) was assessed for dose-dependent activity level decrease. […] Both potency and efficacy of the confirmed inhibitors were evaluated by calculating their half-maximal inhibition concentration (IC50) relative to EC80 LYRAL and the amount of inhibition (Span), respectively. The IC50 values indicate the inhibition level with respect to the potency. The Span values indicate the inhibition level with respect to the inhibition efficacy. The IC50 values are used to rank order the compounds from strongest to weakest inhibitors of OR10J5 (FIG. 9a-d).
As for `CCOC(=O)C(=O)C(C)CC` (racemic) [(+−)-ethyl 3-methyl-2-oxopentanoate], the “inhibition of the OR10J5 response to LYRAL®” value is “decreased the response”.
In the case of `CCCc1ccc2c(c1)OCC(=O)CO2` [7-propyl-2H,4H-1,5-benzodioxepin-3-one], the “inhibition of the OR10J5 response to LYRAL®” value is “decreased the response”.
Still for that read-out and setting: with `CC1=CCCC2(C)OC2CCC(C)=CCC1` (centres unmarked) [trimethyl-13-oxabicyclo-[10.1.0]-trideca-4,8-diene] the entry was “decreased the response”.
The same measure, in the same setting: with `C=C1CC[C@@H]2O[C@]2(C)CC[C@@H]2[C@@H]1CC2(C)C` [(−)-(1R,4R,6S,10S)-4,12,12-trimethyl-9-methylene-5-oxatricyclo[8.2.0.0^4,6]dodecane] the entry was “decreased the response”.

The next assay addresses T2, OR10J5 olfactory receptor. Put plainly: Dose-response confirmation of enhancer candidates, alone and with EC20 LYRAL®. It counts as cell-based. As to conditions: response to LYRAL® raised beyond EC20 without measurable intrinsic activity. The procedure:
A dose response curve showing the activation of OR10J5 in response to the floral muguet compound 3-(4-hydroxy-4-methylpentyl)cyclohex-3-ene-1-carbaldehyde, 4-(4-hydroxy-4-methylpentyl)cyclohex-3-ene-1-carbaldehyde or a mixture thereof (sold under the tradename LYRAL®, hereinafter referred to as “LYRAL®”) is shown in FIG. 1. Using a cell-based assay, OR10J5 activity was tested in a HEK293T cell line wherein the endogenous chaperone RTP1 gene has been activated and the odorant receptor chaperone was expressed according to the methods disclosed in International Patent Application Publication No. WO2016/201153 A1. The Flag-Rho-tagged receptor was co-transfected with the olfactory canonical G-protein Golf and was exposed to a binary mixture of a single concentration of LYRAL® and a test compound.
A library of volatile compounds was used to create binary mixtures of each compound with LYRAL® at approximately EC20, a concentration eliciting only approximately 20% of full activity level of OR10J5 by itself. An activation cell-based assay was used for the initial enhancer candidate identification as disclosed in WO2019122236. Single binary mixture-induced receptor activity was detected by measuring the cAMP increase in the cytosol using an HTRF (Homogenous Time-Resolved Fluorescence unit) based kit (CisBio, cAMP dynamic 2 kit, 62AM4PEJ).
The 37 candidates remaining in Table 2 were identified and were tested in two parallel dose-response experiments to confirm the true enhancement properties of the potential candidates. First, a dose-response of each individual candidate was performed to determine if it was an agonist by itself. Second, the same candidate dose-response curve in the presence of EC20 LYRAL® concentration (generating 20% activity on OR10J5) was assessed for activity level increase.
Consider `CCCCCC=O` [hexanal], for which the “enhancement of OR10J5 LYRAL® activation (true enhancer)” value (“enhancement” below) was “potent enhancement”.
On to `CCCCCC/C=C/C=O` [(E)-non-2-enal], for which the “enhancement” value is on record as “potent enhancement”.
Same read-out and setting: with “3,5,6-Trimethyl-3-Cyclohexene-1-Carbaldehyde + 2,4,6-Trimethyl-3-Cyclohexene-1-Carbaldehyde” the entry was “potent enhancement”.
As for `CCCCCCC=O` [heptanal], the “enhancement” value is “potent enhancement”.
`C/C=C/C=O` [(E)-but-2-enal]: the “enhancement” value is “potent enhancement”.
With `CC(C)=CCC[C@@H](C)CC=O` [(3R)-3,7-dimethyloct-6-enal], the “enhancement” value is reported as “potent enhancement”.
In the case of `CCCCCCC/C=C/C=O` [(E)-dec-2-enal], the “enhancement” value is on record as “potent enhancement”.
On the same count and under the same terms, as for `Cc1ccc(CC(C)C=O)cc1` (racemic) [2-methyl-3-(4-methylphenyl)propanal], the entry is “potent enhancement”.
On to `CC(C=O)c1ccccc1` (centres unmarked) [2-phenylpropanal], for which the “enhancement” value is listed as “potent enhancement”.
Take `CCCCCCCC=O` [octanal]: the “enhancement” value is “potent enhancement”.
Turning to `CCc1ccc(C=O)cc1` [4-ethylbenzaldehyde], the “enhancement” value is on record as “potent enhancement”.
On to `CC(C)=CCCC(C)C=O` (racemic) [2,6-dimethylhept-5-enal], for which the “enhancement” value was “potent enhancement”.
As for `O=Cc1ccccc1` [benzaldehyde], the “enhancement” value was “potent enhancement”.
Turning to `Cc1cccc(C=O)c1` [3-methylbenzaldehyde], the “enhancement” value was “potent enhancement”.
Take `CC1=CC(C)C(C=O)C(C)C1` (centres unmarked) [2,4,6-trimethyl-3-cyclohexene-1-carbaldehyde]: the “enhancement” value is recorded as “potent enhancement”.
Turning to `COC(C)(C)CCCC(C)C=O` (racemic) [6-methoxy-2,6-dimethylheptanal], the “enhancement” value is listed as “potent enhancement”.
On the same count and under the same terms, as for `CC(C)c1ccc(C=O)cc1` [4-Propan-2-ylbenzaldehyde], the entry is “potent enhancement”.
For the molecule “(+−)-3-(4-Methyl-3-penten-1-yl)-3-cyclohexene-1-carbaldehyde + (+−)-4-(4-Methyl-3-penten-1-yl)-3-cyclohexene-1-carbaldehyde”, the “enhancement” value is “potent enhancement”.

The values above are taken from patent publication US11951197B2, “Use of volatile compounds to modulate the perception of floral muguet” (FIRMENICH SA, priority 2018, dated 2024).
